According to patent US20060052435A1, “Selective dopamin d3 receptor agonists for the treatment of sexual dysfunction” (priority 2001, published 2006):

Experiments:
telemetry rats = assay: rat telemetry model of erection (intracavernosal pressure); assay type: in vivo
Procedure: Erectile responses were recorded by measuring intracavernosal pressure and/or clitoral/vaginal blood flow using surgically implanted telemetric device. The specific details of the surgical procedures, data acquisition and analysis can be found in detail in Bernabe J, Rampin O, Sachs B D, Giuliano F. Intracavernous pressure during erection in rats: an integrative approach based on telemetric recording. Am. J. Physiol.

[1] = emesis in the chloralose anaesthetised dog; details: male, beagle, dog, in vivo, 3000 μg kg^−1
Procedure: (§1) Male beagles, 11-17 kg were used. Following an overnight fast, animals were anaesthetised with chloralose (80 mg kg^−1 i.v.), having first been injected with an anaesthetic dose of the short acting barbiturate, thiopentone (15 mg kg^−1 i.v.). Following tracheal intubation, which ensured a patent airway even during the expulsion phase of the emetic response, the left femoral vein and artery were cannulated for further administration of anaesthetic and for recording haemodynamic parameters, respectively. […] During the stabilisation period, respiratory rate was monitored to ensure that central respiratory centres were not deeply depressed, since the CNS efferent component of the emetic reflex is essentially conveyed via respiratory motor neurones. […] Animals were observed closely for 30 min post-dose and motor (e.g. swallowing, eye blinking, limb movements, changes in respiratory rate and depth, retching and vomiting) and haemodynamic changes noted and recorded. […] At the end of an experiment animals were sacrificed with an overdose of pentobarbitone.
(§2) Observations made on individual animals were used to determine the percentage of animals that retched when injected with a particular dose level of test compound. Percentage of animals retching was then used to construct a dose response curve and an ED50 value determined from the appropriate curve.

anaesthetised dog [2] = assay: emesis in the chloralose anaesthetised dog
Procedure: as §1, §2

anaesthetised dog [3] = assay: haemodynamics in the anaesthetised dog; assay type: in vivo; details: for effect on mean blood pressure / effect on total vascular resistance (TVR; TPR) / effect on cardiac output and heart rate: s.c., hydrochloride; for effect on mean blood pressure / effect on total vascular resistance (TVR; TPR): doses up to 3000 μg/kg
From the text: Male beagles were anaesthetised with a mixture of chloralose and urethane, following pre-medication with piritramide. They were instrumented to measure arterial blood pressure, cardiac output, E.C.G., pudendal artery blood flow (PAF) and intra-cavernosal pressure (ICP). Other parameters such as heart rate and vascular resistance were derived from the primary signals. Following a period of equilibration, a series of control readings were taken and the effects of pelvic nerve stimulation at 4 and 8 Hz, on ICP and PAF were measured. Compounds were administered subcutaneously in the dorsal neck region via an implanted catheter, in the dose range of 0.3-3000 μg(base)/kg. Following each dose, parameters were measured at fixed intervals for 30 min.
Results were analysed as percent change from the final control values for each dog and mean values for three dogs were used.

New Zealand rabbits = assay: male and female anaesthetised rabbit, pelvic nerve stimulation; assay type: in vivo
Procedure: 1.1.1 Male and Female Anaesthetised Rabbit Methodology
Male and female New Zealand rabbits (˜2.5 kg) were pre-medicated with a combination of Medetomidine (Domitor®) 0.5 ml/kg i.m., and Ketamine (Vetalar®) 0.25 ml/kg i.m. whilst maintaining oxygen intake via a face mask. The rabbits were tracheotomised using a Portex™ uncuffed endotracheal tube 3 ID., connected to ventilator and maintained at a ventilation rate of 30-40 breaths per minute, with an approximate tidal volume of 18-20 ml, and a maximum airway pressure of 10 cm H2O. Anaesthesia was then switched to Isoflurane and ventilation continued with O2 at 2 l/min. The right marginal ear vein was cannulated using a 23 G or 24 G catheter, and Lactated Ringer solution perfused at 0.5 ml/min. The rabbit was maintained at 3% Isoflurane during invasive surgery, dropping to 2% for maintenance anaesthesia. The left jugular vein was exposed, isolated and then cannulated with a PVC catheter (17 G) for the infusion of drugs and compounds.
The left groin area of the rabbit was shaved and a vertical incision was made approximately 5 cm in length along the thigh. The femoral vein and artery were exposed, isolated and then cannulated with a PVC catheter (17 G) for the infusion of drugs and compounds. Cannulation was repeated for the femoral artery, inserting the catheter to a depth of 10 cm to ensure that the catheter reached the abdominal aorta. This arterial catheter was linked to a Gould system to record blood pressure. Samples for blood gas analysis were also taken via the arterial catheter. Systolic and diastolic pressures were measured, and the mean arterial pressure calculated using the formula (diastolic×2+systolic)÷3. Heart rate was measured via the pulse oxymeter and Po-ne-mah data acquisition software system (Ponemah Physiology Platform, Gould Instrument Systems, Inc.).
A ventral midline incision was made into the abdominal cavity. The incision was about 5 cm in length just above the pubis. The fat and muscle was bluntly dissected away to reveal the hypogastric nerve which runs down the body cavity. It was essential to keep close to the side curve of the pubis wall in order to avoid damaging the femoral vein and artery which lie above the pubis. The sciatic and pelvic nerves lie deeper and were located after further dissection on the dorsal side of the rabbit. Once the sciatic nerve is identified, the pelvic nerve was easily located. The term pelvic nerve is loosely applied; anatomy books on the subject fail to identify the nerves in sufficient detail. However, stimulation of the nerve causes an increase in vaginal and clitoral blood flow in females and in intracavernosal pressure and cavernosal blood flow in males, and innervation of the pelvic region. […]

[4] = target: human dopamine D2 long receptor (Homo sapiens, UniProt P14416)
[5] = at 3000 μg/kg, haemodynamic study

Chain of human dopamine D2 long receptor (P14416 whole entry): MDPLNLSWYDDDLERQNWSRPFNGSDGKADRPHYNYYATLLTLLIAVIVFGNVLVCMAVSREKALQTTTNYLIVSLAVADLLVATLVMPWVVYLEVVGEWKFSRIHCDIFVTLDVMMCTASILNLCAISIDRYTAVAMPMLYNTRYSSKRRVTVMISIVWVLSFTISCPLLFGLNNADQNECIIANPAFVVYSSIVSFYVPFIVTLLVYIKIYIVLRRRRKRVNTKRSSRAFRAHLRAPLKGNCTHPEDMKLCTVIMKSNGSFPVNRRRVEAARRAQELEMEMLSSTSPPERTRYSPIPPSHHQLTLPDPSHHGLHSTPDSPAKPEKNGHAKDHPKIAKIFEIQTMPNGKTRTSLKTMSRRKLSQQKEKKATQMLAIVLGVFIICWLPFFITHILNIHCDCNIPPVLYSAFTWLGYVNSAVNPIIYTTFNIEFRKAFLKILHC

CCCN1CCO[C@H](c2cccc(O)c2)C1.Cl [Example 8, R-(−)-3-(4-Propylmorpholin-2-yl)phenol hydrochloride]
erections/10 minutes in the telemetry rat (telemetry rats; 10 μg/kg s.c.): 2.25±0.25 erections/10 minutes | free plasma concentration at which prosexual effects were observed (telemetry rats; rat telemetry model, FIG. 1): circa 1 nM | concentration at 15 min [1]: ~1000 nM | free plasma concentration relative to the D3 EC50 (anaesthetised dog [2]; at 3000 μg/kg, emesis study): approximately 270 fold | dose at which emesis was observed (anaesthetised dog [2]; s.c., escalating doses 3-3000 μg kg^−1): > 3 mg/kg | free plasma concentration of the corresponding samples (anaesthetised dog [3]; [5]): 2700 nM | free plasma concentration relative to the D3 EC50 (anaesthetised dog [3]; [5]): approximately 270 fold | Geometric mean ED30 (fall in TPR) (anaesthetised dog [3]; dog, in vivo): No effect | effect on mean blood pressure (anaesthetised dog [3]): No significant effect | effect on total vascular resistance (TVR; TPR) (anaesthetised dog [3]): No significant effect | effect on mean blood pressure (anaesthetised dog [3]; listed as selective D3 agonist): no significant effects | effect on total vascular resistance (TVR; TPR) (anaesthetised dog [3]; listed as selective D3 agonist): no significant effects | effect on cardiac output and heart rate (anaesthetised dog [3]): no significant effect | effect on cardiac output and heart rate (anaesthetised dog [3]; listed as selective D3 agonist): no significant effects | penile intracavernosal pressure and cavernosal blood flow in male rabbits (New Zealand rabbits): beneficially enhanced | vaginal and clitoral blood flow in female rabbits (New Zealand rabbits): beneficially enhanced | EC50 [4]: 4.97 µM
